# Reference: BindingDB's records for doi:10.1021/jm0607451 (Wyeth Research, 2006)
# Target: Pepsin A-4 (Homo sapiens, UniProt P0DJD7)
# Experiment: FRET-based Peptide Cleavage Assay
# Conditions: pH 4.5; 22 °C
# Pepsin A-4, sequence (P0DJD7 whole entry): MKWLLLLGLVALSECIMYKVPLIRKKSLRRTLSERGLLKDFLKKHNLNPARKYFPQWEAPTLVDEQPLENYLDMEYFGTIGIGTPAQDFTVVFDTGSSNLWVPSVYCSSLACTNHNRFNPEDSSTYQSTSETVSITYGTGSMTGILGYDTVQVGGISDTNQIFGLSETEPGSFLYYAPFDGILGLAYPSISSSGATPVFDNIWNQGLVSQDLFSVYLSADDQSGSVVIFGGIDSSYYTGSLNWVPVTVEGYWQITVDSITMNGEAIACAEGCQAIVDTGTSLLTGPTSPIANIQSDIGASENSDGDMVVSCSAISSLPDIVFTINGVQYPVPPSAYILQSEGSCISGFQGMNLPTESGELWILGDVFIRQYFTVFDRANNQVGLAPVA
row,Structure (SMILES),IC50 [µM]
1,CCCOc1ccc(-c2ccc(-c3ccccc3Cl)n2CC(=O)NC(=N)NCCCO)cc1 [N-[(1Z)-amino[(3-hydroxypropyl)amino]methylidene]-2-[2-(2-chlorophenyl)-5-(4-propoxyphenyl)-1H-pyrrol-1-yl]acetamide],> 50
2,NC(N)=NC(=O)Cn1c(-c2ccccc2)ccc1C12CC3CC(CC(C3)C1)C2 [2-[2-(adamantan-1-yl)-5-phenyl-1H-pyrrol-1-yl]-N-(diaminomethylidene)acetamide],> 50
3,N/C(=N/C(=O)Cn1c(-c2ccccc2)ccc1C12CC3CC(CC(C3)C1)C2)NCCCO [2-[2-(adamantan-1-yl)-5-phenyl-1H-pyrrol-1-yl]-N-[(1Z)-amino[(3-hydroxypropyl)amino]methylidene]acetamide],> 50
4,CC(=O)c1ccc(Oc2ccc(-c3ccc(-c4ccccc4Cl)n3CC(=O)NC(=N)N)cc2)cc1 [2-[2-(2-chlorophenyl)-5-[4-(4-acetylphenoxy)phenyl]-1H-pyrrol-1-yl]-N-(diaminomethylidene)acetamide],> 50
